Data taken from paper PMC12373846, “Hemoglobin as a pseudoperoxidase and drug target for oxidative stress-related diseases” (Signal Transduction and Targeted Therapy, 2025).

What was measured:
[1] = ROS-Glo H2O2 assay without HRP or Hb; type: biochemical; details: ROS-Glo assay lacking HRP/Hb
Protocol: Hb (Sigma‒Aldrich, H7379), H2O2 (Sigma‒Aldrich, H1009), and Amplex Red reagents (Invitrogen, A12222) were obtained for the study. A 4 μM H2O2 solution was prepared in 50 mM sodium phosphate buffer (pH 7.2). Then, 49 μl of this mixture was mixed with 1 μl of the test compound in DMSO or distilled water. The mixture was combined with an assay mixture of Amplex Red reagent (20 mM stock to 0.1 mM) and HRP (200 U/ml stock to 0.2 U/ml) and added to the wells at 50 μl/well. After a 60-min incubation at 37 °C, resorufin production was quantified via a microplate fluorescence reader (SpectraMax iD5, Molecular Devices) at ex/em = 535/580 nm. The H2O2-decomposing activity was estimated via the following equation: (sample fluorescence-blank fluorescence)/(control […]-blank fluorescence) × 100. For the ROS-Glo assay, the H2O2 substrate solution and ROS-Glo detection solution were prepared according to the manufacturer’s instructions. 10 μM H2O2 and drugs were prepared as in the Amplex Red assay, with HRP, Hb, CAT, or GPx added as needed. The mixture was added to the wells at 100 μl/well and incubated for 60 min at 37 °C. H2O2 substrate solution was added, and the mixture was incubated at room temperature for 30 min. After the H2O2 substrate solution was added and incubated at room temperature for 30 min, the ROS-Glo detection solution was added, and the mixture was incubated for 15 min. Luminescence was measured via iD5 microplate readers. The H2O2-decomposing activity was estimated via the following equation: (sample luminescence-blank luminescence)/(control luminescence-blank luminescence) × 100. The U/ml was calculated on the basis of the amount of H2O2 reduced by Hb during the reaction, using μg/ml and U/mg.

APP/PS1 mice [2] = assay: Passive avoidance test, APP/PS1 mice; type: in vivo, mouse
Protocol: (§1) For an animal model of AD, both sexes of 10- to 18-month-old APP/PS1 mice were maintained and used as previously described.[76],[77] To test the effects of novel H2O2-decomposing enhancers in the AD model, the mice were treated by i.p. injection with KDS12008 (3 mg/kg/day), KDS12017 (3 mg/kg/day), or KDS12025 (3 or 10 mg/kg/day) once per day for 1 or 2 weeks, depending on the experimental protocol. All drugs were dissolved in 200 μl of saline, and the amount of each drug was calculated on the basis of the weight (kg) of the mouse. Moreover, KDS12025 (3 mg/kg/day) was orally administered to the AD model for 2 weeks ad libitum.
Sufficiently handled mice were ready before the PAT. The mice were placed in a two-compartment (light and dark) shuttle chamber with a shock generator (Ugo Basile, Italy). On the first day, the mice were placed in the light compartment for acquisition. The mice were allowed to explore the light compartment for 60 s, after which the door separating the light and dark compartments was raised to allow the mice to enter the dark compartment. When the mice entered the dark compartment, the separating door was closed immediately, and an electrical foot shock (0.5 mA, 2 s duration) was delivered through the floor grid. The mice were then moved back to the home cage, and the retention trial was conducted 24 h after the acquisition. On the second day, the mice were again placed in the light compartment for the retention trial. After 60 s, the door was raised to allow the mice to enter the dark compartment. The latency to step through the dark compartment before and after the electric shock was recorded for up to 540 s.

APP/PS1 mice [3] = assay: Immunohistochemistry of hippocampus, APP/PS1 mice; type: in vivo, mouse
Protocol: as §1
The mice were deeply anesthetized with vaporized 1% isoflurane and placed into stereotaxic frames (RWD Life Science, China). Following an incision on the midline of the scalp, a hole was drilled into the skull above the hippocampus. AAV-GFAP104-GFP or AAV-GFAP104-DTR-GFP was bilaterally microinjected into the hippocampal CA1 region (AP, −2.0 mm; ML, ±1.5 mm; DV, −1.65 mm from the bregma). Diphtheria toxin (2 mg/ml) was administered for 16 days as previously described.[77] For shRNA knockdown, AAV-pSicoR-Hbβ-shRNA-mCherry or AAV-pSicoR-Sc-shRNA-mCherry was microinjected into the same coordinate system. A total of 0.8 µl of the virus was injected via a syringe pump (KD Scientific, USA). The injection procedures were implemented before 5 weeks of the experiments. For cell type-specific knockdown, AAV-pSico-Hbβ-shRNA-GFP or AAV-pSico-Sc-shRNA-GFP was combined with either AAV-CaMKII-Cre-mCherry for neuronal targeting or AAV-GFAP-Cre-mCherry for astrocyte targeting. The viruses were bilaterally injected into the hippocampus and substantia nigra via the same stereotaxic coordinates and injection procedures. All viruses used in this study were produced at the Institute for Basic Science virus facility (IBS virus facility, Korea). To investigate the effects of 0.1 mg/kg/day KDS12025, GiD mice were injected with diphtheria toxin (2 mg/ml) daily for 16 days. Concurrently, KDS12025 was administered ad libitum (0.1 mg/kg/day) during the same period.
The mice were deeply anesthetized with 2% isoflurane and positioned on the operating table. After the abdomen was opened and the heart was exposed, the […] were perfused with saline, followed by 4% paraformaldehyde (PFA) in 0.1 M PBS. The mice were decapitated, and the brains were excised from the skull. Excised brains were postfixed in 4% PFA overnight at 4 °C and dehydrated in 30% sucrose for 48 h. Coronal hippocampal sections were cut at 30 µm thickness with a cryostat and stored in storage solution. For the ALS experiments, lumbar spinal cords (L2–L5) were also carefully dissected and immediately immersed in 4% PFA for postfixation. The sections were fully washed in 0.1 M PBS and incubated for 1 h in blocking solution (0.3% Triton X-100, 2% donkey and goat serum in 0.1 M PBS). Next, a mixture of primary antibodies in the blocking solution was used for immunostaining on a shaker overnight at 4 °C. The sections were washed in PBS three times. After washing, the sections were incubated with the corresponding fluorescent secondary antibodies for 1 h at RT. DAPI staining was performed by adding a DAPI solution (1:2000) during the second washing step. After the washing step was complete, the sections were mounted on cover slides with mounting medium. A series of fluorescence images were obtained with an LSM900 (Zeiss, Germany) confocal microscope or Lattice SIM Elyra 7 (Zeiss, Germany). The 15–22 μm Z stack images in 1–2 μm steps were processed for image analysis, which was performed via the ImageJ (NIH, US) and ZEN digital imaging for light microscopy blue system (Zeiss, Germany) programs.

[4] = 3 mg/kg/day i.p., 16 times, Fig. S10b
[5] = APP+KDS12025 3 mg/kg/day ad libitum, Fig. 5m

## CNc1ccc(NCCc2ccccc2OC)cc1.Cl [KDS12025, N^1-(2-methoxyphenethyl)-N^4-methylbenzene-1,4-diamine hydrochloride salt]
[1]
  H2O2-decomposing activity without HRP or Hb: neither KDS12017 nor KDS12025 degrades H2O2 without Hb
APP/PS1 mice [2]; [4]
  PAT transfer latency, acquisition: 29.03±6.431
  PAT transfer latency, retrieval: 291.0±68.80
APP/PS1 mice [2]; 3mpk i.p., 7 times, Fig. S10g
  PAT transfer latency, acquisition: 36.47±13.39
  PAT transfer latency, retrieval: 341.7±71.16
APP/PS1 mice [2]; 10mpk i.p., 7 times, Fig. S10g
  PAT transfer latency, acquisition: 66.00±15.30
  PAT transfer latency, retrieval: 508.8±49.93
APP/PS1 mice [2]; [5]
  PAT transfer latency, acquisition: 21.17±3.843
  PAT transfer latency, retrieval: 254.3±56.96
APP/PS1 mice [3]; 3 mg/kg/day ad libitum, Fig. 5e
  mean Hbβ intensity in GFAP-positive areas: WT (70.03±1.523, n=55), APP (62.3±1.219, n=65), APP+KDS12025 (ad libitum) (68.67±2.358, n=54) One-way ANOVA with Tukey's multiple comparisons test, F(2,171) = 6.123, p = 0.003 WT vs. APP, p = 0.004; WT vs. APP+KDS12025 (ad libitum), p = 0.85; APP vs. APP+KDS12025 (ad libitum), p = 0.02
APP/PS1 mice [3]; 3 mg/kg/day ad libitum, Fig. 5f
  mean GFAP intensity in GFAP-positive areas: WT (61.01±2.28, n=6), APP (114.3±9.536, n=6), APP+KDS12025 (ad libitum) (64.48±6.98, n=6) One-way ANOVA with Tukey's multiple comparisons test, F(2,14) = 17.24, p < 0.001 WT vs. APP, p < 0.001; WT vs. APP+KDS12025 (ad libitum), p = 0.89; APP vs. APP+KDS12025 (ad libitum), p < 0.001
APP/PS1 mice [3]; 3 mg/kg/day ad libitum, Fig. 5g
  Sholl analysis, sum of intersections: WT (31.45±3.606, n=11), APP (63.19±5.017, n=16), APP+KDS12025 (ad libitum) (33.69±3.3, n=13) One-way ANOVA with Tukey's multiple comparisons test, F(2,37) = 18.10, p < 0.001 WT vs. APP, p < 0.001; WT vs. APP+KDS12025 (ad libitum), p = 0.94; APP vs. APP+KDS12025 (ad libitum), p < 0.001
APP/PS1 mice [3]; 3 mg/kg/day ad libitum, Fig. 5i
  Sholl analysis, ending radius: WT (110.0±6.606, n=11), APP (135.6±5.625, n=16), APP+KDS12025 (ad libitum) (103.1±7.794, n=13) One-way ANOVA with Tukey's multiple comparisons test, F(2,37) = 7.249, p = 0.002 WT vs. APP, p = 0.03; WT vs. APP+KDS12025 (ad libitum), p = 0.77; APP vs. APP+KDS12025 (ad libitum), p = 0.003
APP/PS1 mice [3]; 3 mg/kg/day ad libitum, Fig. 5j
  Sholl analysis, number of intersections: Two-way ANOVA with Tukey's multiple comparison test, F (2,378) = 37.72, p < 0.001 WT (2.028, n=12), APP (4.318, n=17), APP+KDS12025 (ad libitum) (2.392, n=12) WT vs. APP, p < 0.001 (***); WT vs. APP+KDS12025 (ad libitum), p = 0.52; APP vs. APP+KDS12025 (ad libitum), p < 0.001 (^###)
APP/PS1 mice [3]; 3 mg/kg/day ad libitum, Fig. 5h
  Sholl analysis, ramification index: WT (1.617±0.2177, n=11), APP (7.134±1.523, n=16), APP+KDS12025 (ad libitum) (2.808±0.6584, n=13) One-way ANOVA with Tukey's multiple comparisons test, F(2,37) = 6.945, p = 0.003 WT vs. APP, p = 0.004; WT vs. APP+KDS12025 (ad libitum), p = 0.76; APP vs. APP+KDS12025 (ad libitum), p = 0.02
APP/PS1 mice [3]; 3 mg/kg/day ad libitum, Fig. S11c
  mean intensity of GABA in GFAP-positive area: WT (41.73±1.1951, n=19), APP (50.90±1.074, n=41), APP+KDS12025 (ad libitum) (44.45±1.015, n=28) One-way ANOVA with Tukey's multiple comparisons test, F(2,85) = 14.24, p < 0.001 WT vs. APP, p < 0.001; WT vs. APP+KDS12025 (ad libitum), p = 0.38; APP vs. APP+KDS12025 (ad libitum), p < 0.001
APP/PS1 mice [3]; 3 mg/kg/day ad libitum, Fig. S11d
  mean intensity of 8-OHdG in GFAP-positive area: WT (1903±72.86, n=32), APP (2435±66.11, n=58), APP+KDS12025 (ad libitum) (1951±48.61, n=57) One-way ANOVA with Tukey's multiple comparisons test, F(2,144) = 23.42, p < 0.001 WT vs. APP, p < 0.001; WT vs. APP+KDS12025 (ad libitum), p = 0.88; APP vs. APP+KDS12025 (ad libitum), p < 0.001
APP/PS1 mice [3]; 3 mg/kg/day i.p., Fig. S10e
  mean intensity of Iba1 in the hippocampus: 1343±38.44
APP/PS1 mice [3]; 3 mg/kg/day i.p., Fig. S10d
  mean intensity of GFAP in the hippocampus: 1190±87.29
APP/PS1 mice [3]; 3mpk i.p., Fig. S10i
  mean intensity of GFAP in the hippocampus: 59.33±6.459
APP/PS1 mice [3]; 10mpk i.p., Fig. S10i
  mean intensity of GFAP in the hippocampus: 56.71±4.775
